Values after ≈ are worked out from the molar mass of the structure shown.
Tests used:
Bacteria = test: Minimum inhibitory activity against gram negative bacteria; type: functional
[1] = biological target: T1, UDP-N-acetylenolpyruvoylglucosamine reductase (Staphylococcus aureus, UniProt P61431); test: In vitro inhibitory activity against Staphylococcus aureus UDP-N-acetylmuramate dehydrogenase
T1 sequence (P61431 whole entry): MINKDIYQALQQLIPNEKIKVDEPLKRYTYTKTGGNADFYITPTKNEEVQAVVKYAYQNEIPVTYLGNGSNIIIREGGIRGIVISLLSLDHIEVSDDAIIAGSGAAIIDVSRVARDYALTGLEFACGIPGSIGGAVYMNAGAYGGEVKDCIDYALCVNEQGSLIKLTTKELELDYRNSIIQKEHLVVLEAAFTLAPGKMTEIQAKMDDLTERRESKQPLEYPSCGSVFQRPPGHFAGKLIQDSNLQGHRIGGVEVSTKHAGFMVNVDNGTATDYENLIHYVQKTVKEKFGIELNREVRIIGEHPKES

Enterococcus faecalis [2] = test: Minimum inhibitory activity against Enterococcus faecalis GC 4555 (ATCC); type: functional
Staphylococcus aureus [3] = test: Minimum inhibitory activity against Staphylococcus aureus GC 1131 (MRSA); type: functional
[4] = Minimum inhibitory activity against Streptococcus pneumoniae GC1894 (PRSP); type: functional
Staphylococcus aureus [5] = test: Minimum inhibitory activity against Staphylococcus aureus GC 2216 (ATCC); type: functional
Staphylococcus aureus [6] = test: Minimum inhibitory activity against Staphylococcus aureus GC 4543 (MSSA); type: functional
Enterococcus faecalis [7] = test: Minimum inhibitory activity against Enterococcus faecalis GC 2242 (VRE); type: functional
[8] = biological target: T2, UDP-N-acetylmuramate--L-alanine ligase (Staphylococcus aureus, UniProt O31211); test: In vitro inhibitory activity against Staphylococcus aureus UDP-N-acetylmuramoyl-L-alanine synthetase
T2 sequence (O31211 whole entry): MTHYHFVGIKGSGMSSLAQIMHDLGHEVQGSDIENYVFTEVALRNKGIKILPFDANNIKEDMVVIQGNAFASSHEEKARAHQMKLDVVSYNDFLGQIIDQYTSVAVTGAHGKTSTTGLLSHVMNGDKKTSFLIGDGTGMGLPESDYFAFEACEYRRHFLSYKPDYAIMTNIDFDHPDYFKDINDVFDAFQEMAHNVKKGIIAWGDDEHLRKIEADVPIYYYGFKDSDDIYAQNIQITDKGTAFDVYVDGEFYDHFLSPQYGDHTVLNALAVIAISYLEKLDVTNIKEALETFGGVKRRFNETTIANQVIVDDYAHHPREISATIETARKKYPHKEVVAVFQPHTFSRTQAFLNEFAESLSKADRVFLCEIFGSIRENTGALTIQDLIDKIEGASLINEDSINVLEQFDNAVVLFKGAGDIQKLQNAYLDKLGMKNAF

Escherichia coli [9] = test: Minimum inhibitory activity against Escherichia coli GC 4560; type: functional
[10] = Minimum inhibitory activity in presence of 4% bovine serum albumin against Streptococcus pneumoniae GC1894 (PRSP); type: functional
[11] = biological target: T3, UDP-N-acetylmuramoylalanine--D-glutamate ligase (Staphylococcus aureus, UniProt P0A091); test: In vitro inhibitory activity against Staphylococcus aureus UDP-N-acetylmuramoyl-L-alanyl-D-glutamate synthetase
T3 sequence (P0A091 whole entry): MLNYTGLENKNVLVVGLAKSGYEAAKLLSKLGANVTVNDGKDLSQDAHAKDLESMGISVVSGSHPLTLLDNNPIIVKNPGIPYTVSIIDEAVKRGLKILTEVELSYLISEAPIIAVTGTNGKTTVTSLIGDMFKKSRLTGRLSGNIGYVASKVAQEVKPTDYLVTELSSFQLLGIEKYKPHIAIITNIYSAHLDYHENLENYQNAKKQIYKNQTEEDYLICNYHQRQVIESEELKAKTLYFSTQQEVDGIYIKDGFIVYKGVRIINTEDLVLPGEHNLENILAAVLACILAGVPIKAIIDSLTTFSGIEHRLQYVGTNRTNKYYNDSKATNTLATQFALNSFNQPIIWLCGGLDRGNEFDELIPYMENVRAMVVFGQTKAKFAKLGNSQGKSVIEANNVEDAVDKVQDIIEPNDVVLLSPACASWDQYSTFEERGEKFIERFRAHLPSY

[12] = Minimum inhibitory activity against MSCNS GC 646; type: functional; settings: Staphylococcus
Escherichia coli [13] = test: Minimum inhibitory activity against Escherichia coli GC 4559; type: functional
[14] = Partition coefficient (logP); type: physicochemical; settings: octanol/water

Compound	MIC (Bacteria) [µg/mL]	IC50 [1] [µM]	MIC (Enterococcus faecalis [2]) [µg/mL]	MIC (Staphylococcus aureus [3]) [µg/mL]	MIC [4] [µg/mL]	MIC (Staphylococcus aureus [5]) [µg/mL]	MIC (Staphylococcus aureus [6]) [µg/mL]	MIC (Enterococcus faecalis [7]) [µg/mL]	IC50 [8] [µM]	MIC (Escherichia coli [9]) [µg/mL]	MIC [10] [µg/mL]	IC50 [11] [µM]	MIC [12] [µg/mL]	MIC (Escherichia coli [13]) [µg/mL]	logP [14]
Oc1c2c(nn1-c1ccc(Cl)c(Cl)c1)CCCC2	> 128	> 88.3	–	–	–	–	–	–	–	–	–	–	–	–	–
Oc1c2c(nn1-c1cccc(C(F)(F)F)c1)CCS2	–	73.4	16 (≈ 55.9 µM)	4 (≈ 14 µM)	0.5 (≈ 1.75 µM)	2 (≈ 6.99 µM)	1 (≈ 3.49 µM)	8 (≈ 27.9 µM)	> 87.3	128 (≈ 447 µM)	> 128	67.1	2 (≈ 6.99 µM)	> 128	–
CC(C)c1ccc(-n2nc3c(c2O)SCC3)cc1	–	> 96	> 128	128 (≈ 492 µM)	32 (≈ 123 µM)	128 (≈ 492 µM)	128 (≈ 492 µM)	> 128	> 96	> 128	> 128	> 96	128 (≈ 492 µM)	> 128	–
O=[N+]([O-])c1ccc(-n2nc3c(c2O)CSCC3)cc1	> 128	> 90.2	–	–	–	–	–	–	–	–	–	–	–	–	–
Oc1c2c(nn1-c1ccc(Cl)cc1)COC2	> 128	> 106	–	–	–	–	–	–	–	–	–	–	–	–	–
CC(C)(C)c1ccc(-n2nc3c(c2O)SCC3)cc1	–	> 91.1	> 128	> 128	64 (≈ 233 µM)	> 128	128 (≈ 466 µM)	> 128	> 91.1	> 128	> 128	> 91.1	> 128	> 128	–
O=[N+]([O-])c1ccc(-n2nc3c(c2O)SCC3)cc1	–	21.3	32 (≈ 122 µM)	64 (≈ 243 µM)	4 (≈ 15.2 µM)	4 (≈ 15.2 µM)	2 (≈ 7.6 µM)	64 (≈ 243 µM)	72.5	> 128	> 128	36.1	1 (≈ 3.8 µM)	> 128	–
Oc1c2c(nn1-c1ccc(C(F)(F)F)cc1)CCS2	–	38.4	16 (≈ 55.9 µM)	8 (≈ 27.9 µM)	0.5 (≈ 1.75 µM)	2 (≈ 6.99 µM)	1 (≈ 3.49 µM)	8 (≈ 27.9 µM)	> 87.3	128 (≈ 447 µM)	> 128	43	4 (≈ 14 µM)	> 128	–
NC(=O)c1cccc(-n2nc3c(c2O)SCC3)c1	–	> 95.7	64 (≈ 245 µM)	128 (≈ 490 µM)	8 (≈ 30.6 µM)	128 (≈ 490 µM)	64 (≈ 245 µM)	32 (≈ 122 µM)	> 95.7	128 (≈ 490 µM)	> 128	47.8	> 128	> 128	1.41
N#Cc1cccc(-n2nc3c(c2O)SCC3)c1	–	57.5	8 (≈ 32.9 µM)	32 (≈ 132 µM)	4 (≈ 16.4 µM)	8 (≈ 32.9 µM)	16 (≈ 65.8 µM)	8 (≈ 32.9 µM)	54.7	64 (≈ 263 µM)	> 128	46.9	2 (≈ 8.22 µM)	> 128	–
Oc1c2c(nn1-c1ccc(Br)cc1)CCS2	–	12.1	16 (≈ 53.8 µM)	16 (≈ 53.8 µM)	1 (≈ 3.36 µM)	2 (≈ 6.73 µM)	4 (≈ 13.5 µM)	32 (≈ 108 µM)	38.4	> 128	> 128	30.3	1 (≈ 3.36 µM)	> 128	–
Oc1c2c(nn1-c1ccc(Cl)cc1)CC(c1ccccc1)S2 (centres undefined)	–	33.5	> 128	128 (≈ 389 µM)	64 (≈ 195 µM)	64 (≈ 195 µM)	128 (≈ 389 µM)	64 (≈ 195 µM)	> 76	128 (≈ 389 µM)	> 128	74.5	128 (≈ 389 µM)	> 128	–

Reference: ChEMBL document CHEMBL1136141, “2-Phenyl-5,6-dihydro-2H-thieno[3,2-c]pyrazol-3-ol derivatives as new inhibitors of bacterial cell wall biosynthesis” (Bioorg Med Chem Lett, 2003)
